This is an account of results in patent US20040242485A1, “Compositions and methods for the amelioration of leptin resistance” (priority 2003, published 2004).

Holding throughout (format): in vivo, mouse
Experiment [1] in a line: amelioration of leptin resistance (food intake and body weight after leptin) by β3 adrenergic receptor agonist in IR S-2 knockout mice. Conditions: repeated intraperitoneal administration for 2 weeks, then leptin 20 mg/kg intraperitoneally, 12 hours after leptin, FIG. 4.
Protocol: Moreover, as a control, for the case without intraperitoneal administration of leptin, in which 10 ml/kg of body weight of Tragacanth gum was repeatedly administered orally for 2 weeks, or in which 10 ml/kg of body weight of physiological saline solution was repeatedly intraperitoneally administered for 2 weeks instead of CL-316243, the changes in the amount of food intake, and the changes in body weight (%) were measured.
A short description of experiment [2]: changes in body weight after intraperitoneal administration of leptin, wild-type mice. The note with it: 8-week wild-type mice; leptin 10 mg/kg of body weight intraperitoneally; 12 hours after administration; FIG. 1. Here is the method: For the case where 10 mg/kg of body weight of leptin was intraperitoneally administered into the 8-week wild-type mouse, followed by food intake, the changes in body weight (%) after 12 hours of administration of leptin were measured. Moreover, (i) for the case where 10 mg/kg of body weight or 50 mg/kg of body weight of leptin was intraperitoneally administered into the 8-week IR S-2 knockout mouse, followed by food intake, the changes in body weight (%) after 12 hours of administration of leptin were measured. Furthermore, as a control, for the case where physiological saline was administered instead of leptin to the 8-week wild-type and IR S-2 knockout mice, the changes in body weight (%) were measured. In FIG. 1, (a) is a result for the case in which the physiological saline was administered; (b) is a result for the case in which […] of body weight of leptin was intraperitoneally administered; and (c) is a result for the case in which […] of body weight of leptin was intraperitoneally administered. In FIG. 1, as well as in other figures, the values are expressed as means±S.E. (n=5−9); **, p<0.01; ***, p<0.001; and “N.S.” not significant. The statistical significances of the differences in body weight, etc. were determined by Student's t test (two-tailed).

Experiment [3] can be described thus: changes in body weight after intraperitoneal administration of leptin, IR S-2 knockout mice. The note with it: 8-week IR S-2 knockout mice, 12 hours after administration, FIG. 1. The source says: Insulin receptor substrate-2 (IR S-2) knockout mice were produced according to Kubota N. et al., Diabetes, November 2000, 49(11), 1880-9. Then, the IR S-2 gene (shown in the upper portion of FIG. 5) was screened from the mouse genome DNA library, and a targeting vector indicated in the middle of FIG. 5 was produced. The targeting vector was introduced into the TT2 ES cell, and ES cell clone with a recombinant was selected (shown in the lower portion of FIG. 5), which was introduced into the 8-celled embryo, thereby obtaining a chimera organism. […]
For the case where 10 mg/kg of body weight of leptin was intraperitoneally administered into the 8-week wild-type mouse, followed by food intake, the changes in body weight (%) after 12 hours of administration of leptin were measured. Moreover, (i) for the case where 10 mg/kg of body weight or 50 mg/kg of body weight of leptin was intraperitoneally administered into the 8-week IR S-2 knockout mouse, followed by food intake, the changes in body weight (%) after 12 hours of administration of leptin were measured. Furthermore, as a control, for the case where physiological saline was administered instead of leptin to the 8-week wild-type and IR S-2 knockout mice, the changes in body weight (%) were measured. […] The statistical significances of the differences in body weight, etc. were determined by Student's t test (two-tailed).

A short description of experiment [4]: changes in body weight after continuous ventricular administration of leptin, wild-type mice. Conditions: 14-week wild-type mice; continuous ventricular leptin 10 ng/hr; after one week; FIG. 2. Here is the method:
(§1) In a case where a canula was implanted ventricuarly to a 14-week wild-type mouse, and after starting the continuous ventricular administration of leptin (10 ng/hr), followed by food intake at will, the changes in body weigh (%) were measured after one week of said leptin administration.

Experiment [5] is described as follows: changes in body weight after continuous ventricular administration of leptin, IR S-2 knockout mice. The note with it: continuous ventricular leptin 10 ng/hr, after one week, FIG. 2.
Excerpt: Insulin receptor substrate-2 (IR S-2) knockout mice were produced according to Kubota N. et al., Diabetes, November 2000, 49(11), 1880-9. Then, the IR S-2 gene (shown in the upper portion of FIG. 5) was screened from the mouse genome DNA library, and a targeting vector indicated in the middle of FIG. 5 was produced. The targeting vector was introduced into the TT2 ES cell, and ES cell clone with a recombinant was selected (shown in the lower portion of FIG. 5), which was introduced into the 8-celled embryo, thereby obtaining a chimera organism. A male chimeric organism was bred with a C57BL/6J female, thereby obtaining hetero-IR S-2 knockout mice, in which a recombinant gene has been introduced into the germ line. These hetero-knockout mice were bred with each other, thereby obtaining homo-IR S-2 knockout mice.
as §1

As for `CC(Cc1ccc2c(c1)OC(C(=O)[O-])(C(=O)[O-])O2)NCC(O)c1cccc(Cl)c1.[Na+].[Na+]` (stereo not drawn) [CL-316243], the “leptin resistance (changes in food intake (%) and body weight (%) after leptin)” value in experiment [1] was “leptin resistance in IR S-2 knockout mice is ameliorated”.
“leptin: hormone secreted from adipose tissues, regulates appetite and energy metabolism”: the “changes in body weight (%)” value is listed as “significant reduction in weight was observed” in experiment [2]; “significant reduction in weight was not observed” in experiment [3] (leptin 10 mg/kg of body weight intraperitoneally); “significant reduction in weight was not observed” in experiment [3] (leptin 50 mg/kg of body weight intraperitoneally); “significant reduction in weight was observed” in experiment [4]; “significant reduction in weight was not observed” in experiment [5].
